Data from patent US11162123B2, “Glutamine synthetase reaction and method for quantifying ammonia utilizing the same” (ARKRAY, Inc., priority 2017, dated 2021).
Where two headings read alike, the source gives them in different places.

Key:
glutamine synthetase [1] = system: glutamine synthetase
Experimental: After mixing the components, a base material was impregnated therewith. After drying the base material, a test liquid (10,000 N-μg/dL aqueous ammonia solution supplemented with 0, 10, 30, 60, or 80 ppm calcium) was added thereto, followed by allowing the reaction to proceed at room temperature for 300 seconds and then measuring the reflectance (ΔR). By calculating the difference (ΔR) between the reflectance R of the sample to which calcium was not added and the reflectance R of each sample to which calcium was added, the effect of calcium in the ammonia measurement system can be investigated.

glutamine synthetase [2] = system: glutamine synthetase; remark: listed apart in the source
Experimental: (§1) Reagent A was mixed with a sample immediately before the reaction, and then reagent B was added to the resulting mixture to perform the reaction. The ammonia concentration was measured based on the increase in the absorbance at 340 nm during the period of 300 seconds after the beginning of the reaction. To the sample, calcium was added at various concentrations (180, 340, 530, or 700 ppm). The liquid volumes of the reagents were as follows: reagent A, 140 μL; reagent B, 35 μL; sample, 10 μL.
Subsequently, in what step calcium affects the ammonia measurement reaction was investigated. […] Since ADP is a substrate of ADP-dependent hexokinase, the effect of calcium in the sample on the reactions of enzymes excluding glutamine synthetase can be investigated. Similarly, each of G6P and NADH was added as a sample to the reaction system to investigate the reaction using G6P or NADH as a substrate.

[3] = target: Glutamine synthetase (GST) (Homo sapiens, UniProt P15104); settings: known from the art; cited from earlier work
[4] = system: enzymes excluding glutamine synthetase; assay: liquid reaction system with ADP, G6P or NADH added as sample (enzymes excluding glutamine synthetase); format: biochemical
Experimental: as §1
Since ADP is a substrate of ADP-dependent hexokinase, the effect of calcium in the sample on the reactions of enzymes excluding glutamine synthetase can be investigated. Similarly, each of G6P and NADH was added as a sample to the reaction system to investigate the reaction using G6P or NADH as a substrate.

Sequence of Glutamine synthetase (GST) (P15104 whole entry, species assumed): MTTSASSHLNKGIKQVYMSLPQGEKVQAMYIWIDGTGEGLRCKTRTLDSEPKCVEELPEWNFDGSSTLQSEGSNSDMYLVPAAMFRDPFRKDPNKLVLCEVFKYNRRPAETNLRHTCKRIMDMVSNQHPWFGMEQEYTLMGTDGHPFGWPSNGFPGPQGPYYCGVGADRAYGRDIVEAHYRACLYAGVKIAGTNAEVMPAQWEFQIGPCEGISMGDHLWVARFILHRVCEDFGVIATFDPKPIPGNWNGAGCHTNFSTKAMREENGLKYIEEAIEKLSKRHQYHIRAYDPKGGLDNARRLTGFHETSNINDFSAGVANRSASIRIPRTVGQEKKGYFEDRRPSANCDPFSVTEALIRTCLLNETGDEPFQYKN

Which results are given for `O=C(O)CN(CCN(CC(=O)O)CC(=O)O)CC(=O)O` [EDTA, ethylenediaminetetraacetic acid, reference compound]?
change in reflectance (change in ΔR) caused by calcium (glutamine synthetase [1]; addition of 5, 10 or 20 mM EDTA): improved the change in the reflectance; measured value of ammonia versus calcium concentration (glutamine synthetase [2]; addition of EDTA (2.00 mM in reagent A), calcium 180-700 ppm in sample): does not change dependently on the calcium concentration

Which “inhibition of glutamine synthetase” value [3] does the source give for `CS(=N)(=O)CC[C@H](N)C(=O)O` (stereo partly drawn) [L-methionine sulfoximine] here?
The value was “inhibited”.

For `[Ca+2]` [calcium], which “measured value (reflectance, ΔR) versus calcium concentration” value (glutamine synthetase [1]; no EDTA, test liquid with 0, 10, 30, 60 or 80 ppm calcium, room temperature, 300 seconds) is on record?
Its value is “changed dependently on the calcium concentration”.

What about the “effect of calcium on measured value, ADP added as sample” value ([4]; ADP as sample, with and without EDTA) of the same compound?
Its value is “disappearance of the effect of calcium”.

What about the “effect of calcium on measured value, G6P or NADH added as sample” value ([4]; G6P or NADH as sample) of the same compound?
Its value is “no effect of calcium was found”.

What about the “step of the ammonia measurement reaction affected by calcium” value (glutamine synthetase [2]; conclusion from substrate-addition experiments) of the same compound?
Its value is “affects glutamine synthetase in the first step”.

What about the “measured value of ammonia versus calcium concentration” value (glutamine synthetase [2]; no addition of EDTA, calcium 180, 340, 530 or 700 ppm in sample, absorbance 340 nm, 300 seconds) of the same compound?
Its value is “decreases dependently on the calcium concentration”.

Which “inhibition of glutamine synthetase” value [3] does the source give for `CP(=O)(O)CC[C@H](N)C(=O)O` [phosphinothricin] here?
The value was “inhibited”.
